Measured values reported in patent US9162984B2, “Small-molecule modulators of melanin expression” (University of Rochester, priority 2007, dated 2015).

Tests used:
Format in all cases: cell-based, mice
[1] = system: melan-a murine melanocyte cell line; assay: Melanin induction screening in melan-a melanocytes; conditions: for activity for inducing melanin production: initial screening, 2.5 μM, 3 days, melanin normalized to cell count, vs DMSO
Description: (§1) The melan-a murine melanocyte cell line was chosen for library screening. This is a non-tumorogenic line of melanocytes derived from the skin of C57Bl/6J mice (Bennett et al., Int. J. Cancer 39:414 (1987), which is hereby incorporated by reference in its entirety). These cells are ideal for phenotypic melanin screening as they proliferate quickly, are highly differentiated, and have been extensively studied (Snyder et al., Chemistry & Biology 12(4):477 (2005), which is hereby incorporated by reference in its entirety). Melanocytes were cultured in RPMI 1640 media supplemented with 10% FBS and 0.2 μM TPA, at 37° C. under 5% CO2, 95% atmosphere. For screening, 1×10^5 melan-a melanocytes were plated in 24 well tissue culture plates in a volume of 2 ml. After 18 hr incubation, 1 ml of media was removed and replaced by 1 ml media doped with small molecule, forskolin positive control, or DMSO vehicle control for 3 days. Initial screening was performed at a 2.5 μM dose (0.01% DMSO). Cells were harvested by trypsinization, washed 2× with PBS (pH 7.2), and counted by hemocytometry. Cell counts were used to assess treatment effects on cell proliferation. Melanin production was quantified by lysing cell pellets in 800 μl of 1 M NaOH for 2 hrs on ice, vigorously resuspending the lysed material by pipette, reading the absorbance at 490 nm of 200 μl aliquots of total lysate, and referencing to a standard synthetic melanin (Sigma) curve. The 75 member library was screened in triplicate. Melanin production was normalized to cell count (A490/million cells) and fold change against DMSO was calculated (FIG. 2).

[2] = system: melan-a murine melanocyte cell line; assay: Cell counts by hemocytometry to assess treatment effects on cell proliferation
Description: as §1, with “After 18 hr incubation, 1 ml of media was removed and replaced by 1 ml media doped with small molecule, forskolin positive control, or DMSO vehicle control for 3 days. Initial screening was performed at a 2.5 μM dose (0.01% DMSO).” left out, “Cell counts were used to assess treatment effects on cell proliferation.” left out, “The 75 member library was screened in triplicate.” left out

melan-a melanocytes = assay: Melanocyte dendricity by hematoxylin staining; conditions: 2.5 μM, 72 hours; untreated 36%
Procedure: Melanocytes are highly dendritic cells, and dendricity has been correlated with melanin production (Kosano et al., Biochim. Biophys. Acta 1499:11 (2000); Scott et al., J. Invest. Dermatol. 126:855 (2006), which are hereby incorporated by reference in their entirety). Dendricity was assessed by histochemical hematoxylin staining of melan-a melanocytes with and without 2.5 μM A7 treatment. 1×10^4 melan-a melanocytes were cultured onto vitrogen coated cover slips and treated with 2.5 μM A7 or vehicle control for 72 hours. Cells were fixed in 3.7% formalin/PBS, stained with hematoxylin, and imaged. Dendrites per cell were manually quantitated, and the percentage of cells with greater than 2 dendrites was calculated.

Tyrosinase [3] = assay: Tyrosinase activity assay (tritiated water from L-tyrosine-3,5-[3H]) in lysates of treated melanocytes; conditions: 2.5 μM, 3 days; to a lesser degree than forskolin positive control
Description: To further understand the mode of action for A7, tyrosinase activity was quantitated. Tyrosinase functions to hydroxylate tyrosine to dopaquinone and L-DOPA in the first step of melanin production (Ito, Pigment Cell Res. 16:230 (2003), which is hereby incorporated by reference in its entirety). As such, increased tyrosinase activity leads to increased melanin production. Tyrosinase activity can be measured by monitoring the production of tritiated water upon the hydroxylation of L-tyrosine-3,5-[^3H] to L-DOPA (Pomerantz, J. Biol. Chem. 241(1):161 (1966); Park et al., J. Biol. Chem. 268:11742 (1993), which are hereby incorporated by reference in their entirety).
Similarly to library screening, in quadruplet, melanocytes were cultured with and without 2.5 μM small molecule treatment for 3 days. Resulting cell pellets were lysed in 75 μl of 80 mM K2PO4, 1% CHAPS, 2 mM PMSF, and PICO2 protease inhibitor cocktail (CalBioChem) for 2 hours on ice. Lysates were then pelleted (10 minutes, 4° C., 10,000 rpm) and protein concentration was determined by Bradford assay. […] Aliqouts of 1.0 ml of the tritiated water containing supernatant were transferred to scintillation vials containing 5.0 ml scintillation fluid, and ^3H levels were counted. […]

Tyrosinase [4] = assay: Western blot analysis of cellular tyrosinase levels; conditions: treated melanocytes

Row | Structure (SMILES) | activity for inducing melanin production [1] | further results
1 | CCc1nc2ccccc2cc1C(=O)NCCc1ccc(F)cc1 [Compound A5, N-(4-fluorophenethyl)-2-ethylquinoline-3-carboxamide] | some activity | 
2 | O=C(NCCc1ccc(F)cc1)c1ccco1 [Compound C5, N-(4-fluorophenethyl)furan-2-carboxamide] | some activity | 
3 | O=C(c1ccc2c(c1)OCO2)N1CCN(c2ccc(F)cc2)CC1 [Compound E4, (benzo[d][1,3]dioxol-5-yl)(4-(4-fluorophenyl)piperazin-1-yl)methanone] | some activity | 
4 | O=C(NCCc1cccc(F)c1)c1ccco1 [Compound C7, N-(3-fluorophenethyl)furan-2-carboxamide] | some activity | 
5 | CCc1nc2ccccc2cc1C(=O)NCCc1cccc(F)c1 [Compound A7, N-(3-fluorophenethyl)-2-ethylquinoline-3-carboxamide] | some activity | concentration giving the optimal melanogenic response ([1]; dose response, melanin quantity normalized to DMSO): 2.5 µM; ranking of melanin induction among hits ([1]; subsequent analysis of library hits): most active hit; effect on cell proliferation in dose response ([2]; concentrations up to 5 μM): no significant effect on cell proliferation; cytotoxic effects in cell culture ([2]; melanocytes in culture): does not exhibit cytotoxic effects; percentage of cells with greater than 2 dendrites (melan-a melanocytes): 69%; tyrosinase activity in melanocyte culture (Tyrosinase [3]): increases tyrosinase activity; cellular levels of tyrosinase (Tyrosinase [4]): not altered
6 | CC1(C)CCCC(C)(C)N1C(=O)c1c(F)c(F)c(F)c(F)c1F [Compound D10, (2,2,6,6-tetramethylpiperidin-1-yl)(perfluorophenyl)methanone] | some activity | 
7 | Cc1cc(NC(=O)c2c(F)c(F)c(F)c(F)c2F)no1 [Compound D12, 2,3,4,5,6-pentafluoro-N-(5-methylisoxazol-3-yl)benzamide] | some activity | 
8 | CC1(C)CCCC(C)(C)N1C(=O)c1ccco1 [Compound C10, (furan-2-yl)(2,2,6,6-tetramethylpiperidin-1-yl)methanone] | some activity | 
9 | CCCCNC(=O)c1ccco1 [Compound C2, N-butylfuran-2-carboxamide] | some activity | 
10 | O=C(NCc1ccco1)c1ccco1 [Compound C1, N-((furan-2-yl)methyl)furan-2-carboxamide] | some activity | 
